From ChEMBL document CHEMBL1201862, “PubChem BioAssay data set” (2004)
Calls of active or inactive are those of the source.

Key:
[1] = target: T1, Replicative DNA helicase DnaB (Mycobacterium tuberculosis, UniProt P9WMR3); test: DnaB intein splicing inhibitors, dose response, biochemical, cell-free fluorescence (AID 449749); type: functional
T1 sequence (P9WMR3 whole entry): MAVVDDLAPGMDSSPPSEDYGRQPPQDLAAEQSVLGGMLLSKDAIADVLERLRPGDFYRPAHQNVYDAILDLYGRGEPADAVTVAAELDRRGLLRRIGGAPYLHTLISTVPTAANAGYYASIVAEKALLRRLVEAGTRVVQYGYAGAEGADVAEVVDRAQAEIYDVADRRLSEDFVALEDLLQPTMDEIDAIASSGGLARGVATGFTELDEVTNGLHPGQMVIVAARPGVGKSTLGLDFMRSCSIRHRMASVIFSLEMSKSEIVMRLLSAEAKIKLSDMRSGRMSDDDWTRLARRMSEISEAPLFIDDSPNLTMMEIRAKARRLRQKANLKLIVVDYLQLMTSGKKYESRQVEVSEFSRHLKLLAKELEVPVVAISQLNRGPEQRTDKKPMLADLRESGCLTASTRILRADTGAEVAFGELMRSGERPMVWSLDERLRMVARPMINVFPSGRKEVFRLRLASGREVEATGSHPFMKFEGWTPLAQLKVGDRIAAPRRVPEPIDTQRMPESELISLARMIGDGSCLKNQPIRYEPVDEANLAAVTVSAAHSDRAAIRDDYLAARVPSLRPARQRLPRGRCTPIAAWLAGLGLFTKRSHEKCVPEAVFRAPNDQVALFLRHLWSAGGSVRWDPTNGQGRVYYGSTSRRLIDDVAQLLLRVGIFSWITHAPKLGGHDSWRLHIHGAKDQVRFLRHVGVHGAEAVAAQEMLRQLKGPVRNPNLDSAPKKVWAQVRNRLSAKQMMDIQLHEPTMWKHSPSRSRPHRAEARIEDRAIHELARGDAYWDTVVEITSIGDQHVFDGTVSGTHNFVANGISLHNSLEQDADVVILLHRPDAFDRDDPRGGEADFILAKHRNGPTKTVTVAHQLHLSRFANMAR

[2] = target: T2, Protein RecA (Mycobacterium tuberculosis, UniProt P9WHJ3); test: Fluorescence Cell-Free Homogeneous Dose Retest to Identify Inhibitors of RecA-Intein Splicing Activity. [Related pubchem assays (depositor defined):AID2097, AID2223, AID489010, AID492950]; type: functional
T2 sequence (P9WHJ3 whole entry): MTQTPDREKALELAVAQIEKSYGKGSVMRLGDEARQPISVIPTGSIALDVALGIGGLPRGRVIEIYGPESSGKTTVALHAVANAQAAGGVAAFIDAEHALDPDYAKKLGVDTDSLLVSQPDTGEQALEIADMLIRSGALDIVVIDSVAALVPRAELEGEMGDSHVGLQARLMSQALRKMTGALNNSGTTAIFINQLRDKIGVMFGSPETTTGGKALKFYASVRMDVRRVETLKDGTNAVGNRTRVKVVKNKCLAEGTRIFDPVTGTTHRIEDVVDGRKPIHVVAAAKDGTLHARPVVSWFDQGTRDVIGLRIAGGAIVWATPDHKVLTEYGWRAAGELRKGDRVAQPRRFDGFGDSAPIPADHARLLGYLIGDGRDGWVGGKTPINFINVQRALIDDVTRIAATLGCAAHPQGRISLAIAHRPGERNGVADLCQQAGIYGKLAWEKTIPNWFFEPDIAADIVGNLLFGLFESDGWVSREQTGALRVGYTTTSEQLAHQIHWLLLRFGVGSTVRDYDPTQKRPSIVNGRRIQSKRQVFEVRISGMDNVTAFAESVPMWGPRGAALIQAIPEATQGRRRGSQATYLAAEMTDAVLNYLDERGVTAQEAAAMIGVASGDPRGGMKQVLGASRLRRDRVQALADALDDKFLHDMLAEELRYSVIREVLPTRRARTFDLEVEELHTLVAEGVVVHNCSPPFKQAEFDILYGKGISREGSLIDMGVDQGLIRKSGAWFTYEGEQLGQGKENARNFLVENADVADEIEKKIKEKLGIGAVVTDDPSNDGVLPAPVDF

[3] = HEp-2 cell cytotoxicity, dose response, cytotoxicity control for RSV inhibitor project, HTS (AID 2410); type: functional; settings: human respiratory syncytial virus
[4] = target: Cytochrome P450 2C19 (Homo sapiens, UniProt P33261); test: Cytochrome panel assay with activity outcomes. Panel member name: p450-cyp2c19 Compounds with AC50 equal or less than 10 uM are considered active; type: functional; settings: read-out: AC50
Chain of Cytochrome P450 2C19 (P33261 whole entry): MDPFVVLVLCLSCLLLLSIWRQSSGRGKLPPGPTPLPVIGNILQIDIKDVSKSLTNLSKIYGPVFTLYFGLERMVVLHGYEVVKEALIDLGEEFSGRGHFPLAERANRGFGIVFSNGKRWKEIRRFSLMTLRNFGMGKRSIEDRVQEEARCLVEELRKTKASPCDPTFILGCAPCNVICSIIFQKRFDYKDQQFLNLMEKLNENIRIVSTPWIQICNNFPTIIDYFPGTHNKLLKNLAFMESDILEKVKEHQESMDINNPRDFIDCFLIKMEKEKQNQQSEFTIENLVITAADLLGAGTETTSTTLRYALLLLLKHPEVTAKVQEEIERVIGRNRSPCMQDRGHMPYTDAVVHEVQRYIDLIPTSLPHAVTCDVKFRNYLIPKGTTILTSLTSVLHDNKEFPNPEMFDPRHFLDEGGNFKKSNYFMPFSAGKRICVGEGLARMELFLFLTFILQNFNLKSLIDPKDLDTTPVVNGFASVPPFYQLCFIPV

[5] = target: Cytochrome P450 2C9 (Homo sapiens, UniProt P11712)
Chain of Cytochrome P450 2C9 (P11712 whole entry): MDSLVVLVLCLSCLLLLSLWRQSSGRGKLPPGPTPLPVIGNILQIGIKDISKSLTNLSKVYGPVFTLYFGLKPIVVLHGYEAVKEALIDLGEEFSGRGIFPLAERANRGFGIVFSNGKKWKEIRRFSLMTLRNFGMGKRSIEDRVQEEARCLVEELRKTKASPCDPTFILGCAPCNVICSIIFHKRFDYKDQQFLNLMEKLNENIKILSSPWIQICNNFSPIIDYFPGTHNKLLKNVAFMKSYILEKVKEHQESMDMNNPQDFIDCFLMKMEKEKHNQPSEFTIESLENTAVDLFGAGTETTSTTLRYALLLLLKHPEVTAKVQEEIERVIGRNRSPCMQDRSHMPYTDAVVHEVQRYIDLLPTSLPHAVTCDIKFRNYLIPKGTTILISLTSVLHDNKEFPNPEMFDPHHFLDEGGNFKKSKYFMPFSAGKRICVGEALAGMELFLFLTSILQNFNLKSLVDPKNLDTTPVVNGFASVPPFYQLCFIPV

[6] = target: T3, Cytochrome P450 1A2 (Homo sapiens, UniProt P05177);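 also: PubChem cytochrome P450 panel assay, CYP1A2 panel member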
T3 sequence (P05177 whole entry): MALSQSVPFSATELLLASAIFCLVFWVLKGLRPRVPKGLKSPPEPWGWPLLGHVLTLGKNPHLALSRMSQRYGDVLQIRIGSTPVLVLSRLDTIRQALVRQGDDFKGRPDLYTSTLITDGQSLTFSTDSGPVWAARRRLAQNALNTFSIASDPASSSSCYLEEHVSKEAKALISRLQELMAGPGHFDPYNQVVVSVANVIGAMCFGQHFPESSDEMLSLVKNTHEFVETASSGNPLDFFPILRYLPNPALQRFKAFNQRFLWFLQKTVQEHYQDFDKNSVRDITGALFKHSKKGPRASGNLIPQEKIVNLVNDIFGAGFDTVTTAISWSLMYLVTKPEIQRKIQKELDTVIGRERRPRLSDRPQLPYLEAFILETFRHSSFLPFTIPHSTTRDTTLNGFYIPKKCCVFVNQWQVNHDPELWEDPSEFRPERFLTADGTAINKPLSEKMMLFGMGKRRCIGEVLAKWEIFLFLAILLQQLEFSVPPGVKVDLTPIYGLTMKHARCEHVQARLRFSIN

[7] = target: Cytochrome P450 2D6 (Homo sapiens, UniProt P10635);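 also: CYP2D6 member of a cytochrome P450 panel assay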
Chain of Cytochrome P450 2D6 (P10635 whole entry): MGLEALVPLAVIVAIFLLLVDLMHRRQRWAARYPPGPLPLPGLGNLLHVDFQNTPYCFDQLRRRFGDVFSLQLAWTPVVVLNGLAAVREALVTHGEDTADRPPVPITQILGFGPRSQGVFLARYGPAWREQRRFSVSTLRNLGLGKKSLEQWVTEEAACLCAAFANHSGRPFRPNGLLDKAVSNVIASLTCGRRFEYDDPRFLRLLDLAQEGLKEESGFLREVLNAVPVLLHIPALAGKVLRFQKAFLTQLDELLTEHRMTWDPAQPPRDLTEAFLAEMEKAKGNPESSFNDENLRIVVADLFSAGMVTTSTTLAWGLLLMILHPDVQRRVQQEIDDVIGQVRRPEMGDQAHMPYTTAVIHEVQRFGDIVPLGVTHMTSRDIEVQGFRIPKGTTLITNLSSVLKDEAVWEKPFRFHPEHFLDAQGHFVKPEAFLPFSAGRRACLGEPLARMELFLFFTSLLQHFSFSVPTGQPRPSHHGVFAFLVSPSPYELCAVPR

[8] = target: T4, Streptokinase A (Streptococcus pyogenes serotype M1, UniProt P10520); test: S. pyogenes streptokinase expression inhibitors, potency, dose response, plasminogen activation absorbance, OD405 (AID 1914); type: functional, Streptococcus pyogenes M1 GAS;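 also: secreted streptokinase activity via plasminogen activation per viability signal from cell pellet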
T4 sequence (P10520 whole entry): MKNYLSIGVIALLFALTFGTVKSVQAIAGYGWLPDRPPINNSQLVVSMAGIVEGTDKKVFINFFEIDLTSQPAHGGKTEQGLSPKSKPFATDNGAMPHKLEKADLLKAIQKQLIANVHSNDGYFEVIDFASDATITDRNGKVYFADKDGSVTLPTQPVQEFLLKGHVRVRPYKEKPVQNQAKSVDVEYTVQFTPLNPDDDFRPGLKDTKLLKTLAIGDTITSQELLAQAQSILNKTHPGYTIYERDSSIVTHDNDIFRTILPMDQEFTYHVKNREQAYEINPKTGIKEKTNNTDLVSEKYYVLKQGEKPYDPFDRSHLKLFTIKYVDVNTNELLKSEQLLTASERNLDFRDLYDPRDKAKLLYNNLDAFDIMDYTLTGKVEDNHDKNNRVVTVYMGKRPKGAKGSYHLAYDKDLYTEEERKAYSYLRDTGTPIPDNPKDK

[9] = target: Cytochrome P450 3A4 (Homo sapiens, UniProt P08684);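 also: CYP3A4 tested as one member of a cytochrome P450 panel screen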
Chain of Cytochrome P450 3A4 (P08684 whole entry): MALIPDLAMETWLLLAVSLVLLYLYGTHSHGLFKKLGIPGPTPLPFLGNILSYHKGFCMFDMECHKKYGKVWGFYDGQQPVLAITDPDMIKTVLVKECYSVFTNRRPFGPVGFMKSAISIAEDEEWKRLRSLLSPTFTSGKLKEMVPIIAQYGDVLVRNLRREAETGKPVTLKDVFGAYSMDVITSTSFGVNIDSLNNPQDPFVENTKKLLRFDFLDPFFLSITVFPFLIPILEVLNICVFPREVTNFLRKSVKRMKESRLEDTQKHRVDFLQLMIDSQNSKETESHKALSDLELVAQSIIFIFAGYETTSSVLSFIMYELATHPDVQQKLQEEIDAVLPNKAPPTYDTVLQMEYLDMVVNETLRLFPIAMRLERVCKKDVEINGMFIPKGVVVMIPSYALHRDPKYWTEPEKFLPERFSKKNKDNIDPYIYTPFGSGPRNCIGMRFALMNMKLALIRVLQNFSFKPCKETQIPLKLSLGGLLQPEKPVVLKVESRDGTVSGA

[10] = cells; type: functional, cell-based

Cc1n[nH]c2c1C(c1cccc(OC(=O)N3CCOCC3)c1)C(C#N)=C(N)O2 (configuration not stated)
AC50 [1]: 31.2 µM (active)
EC50 [2]: 7.44 µM (active)

Cc1cc(-n2nnc3ccccc32)nc2ccccc12
CC50 [3]: 19.1 µM (active)

N#CCCn1[nH]c(-c2ccccc2)cc1=O
AC50 [1]: 5.47 µM (active)
EC50 [2]: 3.32 µM (active)

C=CCn1c(SCC(=O)Nc2ncc(Cc3ccc(Br)cc3)s2)nnc1-c1ccncc1
AC50 [4]: 2.82 µM (inconclusive)

CCOc1ccc(CNc2ccc(CNc3nc[nH]n3)cc2)cc1
CC50 [3]: 18 µM (active)

Cc1ccc(NC(=O)CN2C(=O)NC(C)(c3ccc(Cl)cc3)C2=O)c(Br)c1 (configuration not stated)
CC50 [3]: 30.1 µM (active)

COc1cc(C(=O)NCC(c2cccnc2)N2CCN(C)CC2)cc(OC)c1OC (configuration not stated)
AC50 [4]: 39.8 µM (inconclusive)

COc1ccc(-n2c(C)cc(C=O)c2C)cc1Cl
AC50 [5]: 17.8 µM (inconclusive)
AC50 [6]: 14.1 µM (inconclusive)
AC50 [4]: 3.98 µM (inconclusive)

CNc1ncncc1-c1ccccc1C
AC50 [7]: 31.6 µM (inconclusive)
AC50 [6]: 12.6 µM (inconclusive)

O=c1c(-c2cccs2)nc2cnc(Oc3ccccc3)nc2n1C1CC1
AC50 [4]: 1.58 µM (inconclusive)

CC12CC(NC(=O)N1c1cccc(C(=O)NCc3ccccc3)c1)c1ccccc1O2 (configuration not stated)
AC50 [7]: 28.2 µM (inconclusive)
AC50 [6]: 25.1 µM (inconclusive)

O=C(c1ccccc1)N1CCCC(c2ccc(Cl)cc2)=N1
CC50 [3]: 42.4 µM (active)

COc1ccc(NC(=O)CSc2nc3cc[nH]cc-3n2)c(OC)c1
CC50 [3]: 33.1 µM (active)

Nc1nc(Cl)cc(N2CCOCC2)n1
AC50 [7]: 39.8 µM (inconclusive)
AC50 [6]: 15.8 µM (inconclusive)

O=C(CN1C(=O)NC2(CCCCCC2)C1=O)N1CCN(S(=O)(=O)c2ccc(Cl)cc2)CC1
AC50 [5]: 17.8 µM (inconclusive)
AC50 [4]: 20 µM (inconclusive)

CCN1C=C(Cc2ccccc2C)C2=C(C1)C(c1ccccc1C)C(C#N)=C(N)O2 (configuration not stated)
CC50 [3]: 13.1 µM (active)

Cc1ncsc1C(=O)N1N=C2/C(=C/c3ccccc3)CCCC2C1c1ccccc1 (configuration not stated)
AC50 [6]: 17.8 µM (inconclusive)
AC50 [4]: 17.8 µM (inconclusive)

O=C(CCl)Nc1ccc(N=Nc2ccccc2)cc1
AC50 [1]: 6.81 µM (active)
EC50 [2]: 2.18 µM (active)

COC(=O)Cn1c(C(=O)N(C)C)cc2c1C[C@H]1CN(C(=O)c3ccccc3)[C@@](Cc3ccc(OC)cc3)(C(=O)OC)[C@@H]21
AC50 [5]: 12.6 µM (inconclusive)
AC50 [4]: 20 µM (inconclusive)

Cc1n[nH]c2c1C(c1ccsc1C)C(C#N)=C(N)O2 (configuration not stated)
AC50 [1]: 10.1 µM (active)
EC50 [2]: 3.77 µM (active)

Cc1ccc(-n2nnc3c(SCC(=O)NCC4CCCO4)ncnc32)cc1 (configuration not stated)
AC50 [1]: 4.72 µM (active)
EC50 [2]: 4.23 µM (active)

O=C1c2[nH]nc(-c3ccccc3O)c2C(c2cccc(Cl)c2)N1Cc1ccco1 (configuration not stated)
AC50 [1]: 66.5 µM (active)
EC50 [2]: > 380 µM (inconclusive)
EC50 [8]: 15.8 µM (active)

CC(C)C(NC(=O)C1CCCCC1)C(=O)NC1CCN(Cc2ccccc2)CC1 (configuration not stated)
AC50 [4]: 3.55 µM (inconclusive)

CCc1cc2c(c(CC)n1)CCC(=O)N2Cc1ccc(-c2ccccc2-c2nnn[nH]2)cc1
AC50 [7]: 10 µM (inconclusive)
AC50 [5]: 25.1 µM (inconclusive)
AC50 [9]: 20 µM (inconclusive)

COc1ccc(-c2nc3n(c2Br)CCC3)cc1
CC50 [3]: 30.9 µM (active)

CCOC(=O)c1c(C)[nH]c(C(=O)/C(C#N)=C/c2ccc(OC)c(OC)c2)c1C
CC50 [3]: > 50 µM (active)

CCOC(=O)CN1C(=O)N[C@@H](c2cccc(C(F)(F)F)c2)C(C(C)=O)=C1C
AC50 [1]: > 380 µM (inactive)
EC50 [2]: > 380 µM (inactive)

COc1ccc(C2C(C#N)=C(N)Oc3[nH]nc(C)c32)cc1Cn1nnc2ccccc21 (configuration not stated)
AC50 [1]: 7.76 µM (active)
EC50 [2]: 3.87 µM (active)

CC(Oc1ccc2c3c(c(=O)oc2c1)CCCC3)C(=O)NCC(O)c1ccccc1 (configuration not stated)
EC50 [10]: > 350 µM (not active)

CC(=O)C1=C(O)[C@@H]2[C@@H]3c4c[nH]c5cccc(c45)C[C@@H]3C(C)(C)N2C1=O
AC50 [7]: 39.8 µM (inconclusive)
AC50 [9]: 10 µM (inconclusive)
AC50 [6]: 12.6 µM (inconclusive)

N#Cc1cccc(-c2ccc3ncnc(NCc4ccccc4)c3c2)c1
AC50 [7]: 10 µM (inconclusive)
AC50 [5]: 0.631 µM (inconclusive)
AC50 [9]: 15.8 µM (inconclusive)

NC(=O)CNC(=O)[C@@H]1CC2(CC(c3cccc([N+](=O)[O-])c3)=NO2)CN1C(=O)c1ccccc1 (some centres not stated)
AC50 [7]: 31.6 µM (inconclusive)
AC50 [5]: 0.708 µM (inconclusive)

Cc1ccc(Nc2nc(Cl)c(C=O)s2)cc1Cl
CC50 [3]: 19.2 µM (active)

CCOc1c2ccc(C(=O)NCc3ccc4c(c3)OCO4)cc2nn1CC
AC50 [7]: 15.8 µM (inconclusive)
AC50 [6]: 8.91 µM (inconclusive)

Cc1nn(-c2ccccc2)c2c1C(c1ccc(F)cc1)C(C#N)=C(N)O2 (configuration not stated)
AC50 [1]: 3.55 µM (active)
EC50 [2]: 2.93 µM (active)

N=C(NOC(=O)Cc1ccc(Cl)cc1)c1cccnc1
AC50 [7]: 6.31 µM (inconclusive)
AC50 [5]: 12.6 µM (inconclusive)

COc1ccc(OC)c(N2C(=O)C(Cl)=C(N3CCCCC3)C2=O)c1
AC50 [1]: 11.8 µM (active)
EC50 [2]: 4.67 µM (active)

Cc1nn(Cc2ccc([N+](=O)[O-])cc2)c(=O)n1-c1cccc(F)c1
AC50 [7]: 25.1 µM (inconclusive)
AC50 [6]: 17.8 µM (inconclusive)
